Laboratory results from publication PMC9885860 (Pharmacological research, 2021).
Values joined by “and” are separate entries in the source; they are usually repeats but may differ in a detail not shown here. Equal entries are not always repeated. “Also recorded” adds a separate entry of the source. Structures can show the parent of a compound that is named as a salt. Where two headings read alike, the source gives them in different places.

Legend:
[1] = molecular target: α2AR-D4.7R (Homo sapiens, UniProt P08913+P21917); assay: CODA-RET Gαi1 activation, α2AR-D4.7R heteromer; type: cell-based; conditions: for Emax: Gαi1, Table 2
[2] = molecular target: T1, D4.4R (Homo sapiens, UniProt P21917); assay: Receptor-G protein BRET, D4.4R fused to RLuc with Gαi1 or Gαo1; type: cell-based
T1 sequence (P21917 1-419): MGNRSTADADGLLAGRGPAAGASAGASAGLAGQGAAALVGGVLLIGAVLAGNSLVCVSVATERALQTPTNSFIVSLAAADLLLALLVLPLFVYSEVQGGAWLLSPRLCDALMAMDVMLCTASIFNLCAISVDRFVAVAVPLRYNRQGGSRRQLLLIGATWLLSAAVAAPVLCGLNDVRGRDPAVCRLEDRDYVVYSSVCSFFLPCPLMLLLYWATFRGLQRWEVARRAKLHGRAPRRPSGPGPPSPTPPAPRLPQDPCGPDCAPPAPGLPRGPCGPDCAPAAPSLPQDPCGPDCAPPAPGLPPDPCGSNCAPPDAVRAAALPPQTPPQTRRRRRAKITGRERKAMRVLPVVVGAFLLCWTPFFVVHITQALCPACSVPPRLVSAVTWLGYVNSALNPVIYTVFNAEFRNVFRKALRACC

[3] = molecular target: T2, α2AR-D4.4R cells (Homo sapiens, UniProt P08913+P21917); assay: ERK1/2 phosphorylation, α2AR-D4.4R cells; type: cell-based; conditions: agonists 300 nM, 5 min
T2 sequence (P08913 1-465): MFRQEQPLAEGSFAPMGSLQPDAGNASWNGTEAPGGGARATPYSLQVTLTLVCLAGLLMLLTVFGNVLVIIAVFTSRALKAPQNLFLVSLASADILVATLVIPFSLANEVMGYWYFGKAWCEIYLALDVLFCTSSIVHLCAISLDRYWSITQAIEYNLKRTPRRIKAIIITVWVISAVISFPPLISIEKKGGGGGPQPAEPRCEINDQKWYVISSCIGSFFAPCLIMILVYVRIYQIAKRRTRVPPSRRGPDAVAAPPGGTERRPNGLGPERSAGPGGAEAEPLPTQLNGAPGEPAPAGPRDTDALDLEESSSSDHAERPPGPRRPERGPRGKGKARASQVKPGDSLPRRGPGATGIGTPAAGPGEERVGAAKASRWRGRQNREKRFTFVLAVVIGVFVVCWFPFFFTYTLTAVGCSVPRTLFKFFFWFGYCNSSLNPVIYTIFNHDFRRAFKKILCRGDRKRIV
T2 sequence (P21917 1-419): T1 sequence (P21917 1-419)

[4] = molecular target: T3, α2AR-D4.4R (Homo sapiens, UniProt P08913+P21917); assay: CODA-RET Gαo1 activation, α2AR-D4.4R heteromer; type: cell-based; conditions: Fig. 4D
T3 sequence (P08913 1-465): T2 sequence (P08913 1-465)
T3 sequence (P21917 1-419): T1 sequence (P21917 1-419)

[5] = molecular target: T4, D4.4R-D4.4R (Homo sapiens, UniProt P21917); assay: CODA-RET Gαi1 activation, D4.4R-D4.4R homomer; type: cell-based; conditions: A-412997 1 μM; shift to the right of DA curve
T4 sequence (P21917 1-419) 1: T1 sequence (P21917 1-419)
T4 sequence (P21917 1-419) 2: T1 sequence (P21917 1-419)

[6] = molecular target: T5, D4.7R (Homo sapiens, UniProt P21917); assay: Receptor-G protein BRET, D4.7R fused to RLuc with Gαi1 or Gαo1; type: cell-based
T5 sequence (P21917 1-264 limits assumed): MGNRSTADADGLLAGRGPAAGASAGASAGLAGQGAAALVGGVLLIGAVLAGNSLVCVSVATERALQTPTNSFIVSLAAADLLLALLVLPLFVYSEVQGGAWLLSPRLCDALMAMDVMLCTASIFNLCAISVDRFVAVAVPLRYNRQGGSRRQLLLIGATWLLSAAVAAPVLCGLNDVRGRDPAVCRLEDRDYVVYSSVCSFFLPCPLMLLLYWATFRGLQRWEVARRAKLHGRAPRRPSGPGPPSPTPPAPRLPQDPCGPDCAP
T5 sequence (P21917 297-419 limits assumed): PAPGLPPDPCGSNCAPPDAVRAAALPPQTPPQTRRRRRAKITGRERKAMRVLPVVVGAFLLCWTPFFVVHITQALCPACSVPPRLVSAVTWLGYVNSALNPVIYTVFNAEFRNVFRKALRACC

[7] = molecular target: T1, D4.4R; type: binding
[8] = test system: cortical slices from hD4.7R mice; assay: ERK1/2 phosphorylation in cortical brain slices from knock-in hD4.7R mice; parameters: species or system mouse; conditions: agonists 1 μM
[9] = molecular target: T6, α2R (Ovis aries, UniProt A0ACI6PY47); assay: Competitive inhibition of [3H]RX821002 binding in sheep cortex membranes; conditions: read-out: KDB1 for α2R; vs [3H]RX821002, sheep cortex membranes
T6 sequence (A0ACI6PY47 1-467): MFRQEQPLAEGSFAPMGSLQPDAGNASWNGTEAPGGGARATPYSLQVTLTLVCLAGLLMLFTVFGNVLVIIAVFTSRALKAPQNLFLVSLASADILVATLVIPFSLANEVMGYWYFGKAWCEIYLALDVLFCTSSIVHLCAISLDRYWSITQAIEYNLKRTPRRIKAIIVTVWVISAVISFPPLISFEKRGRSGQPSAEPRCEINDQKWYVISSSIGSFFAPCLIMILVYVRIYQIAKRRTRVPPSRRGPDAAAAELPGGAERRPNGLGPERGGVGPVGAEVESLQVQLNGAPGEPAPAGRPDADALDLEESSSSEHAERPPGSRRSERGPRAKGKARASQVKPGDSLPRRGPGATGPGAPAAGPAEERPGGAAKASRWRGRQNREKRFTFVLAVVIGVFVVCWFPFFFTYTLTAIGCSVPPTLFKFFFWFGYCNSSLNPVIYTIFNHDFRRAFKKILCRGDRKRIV

[10] = molecular target: T3, α2AR-D4.4R; type: binding; conditions: 12°C; control or in presence of A-412997 (30 nM)
[11] = molecular target: T2, α2AR-D4.4R cells; assay: Forskolin-induced cAMP accumulation, α2AR-D4.4R cells; type: cell-based; conditions: agonists 100 nM, forskolin 0.5 μM
[12] = molecular target: T7, D4.7R-D4.7R (Homo sapiens, UniProt P21917); conditions: A-412997 1 μM; shift to the right of DA curve
T7 sequence (P21917 1-419): T1 sequence (P21917 1-419)

[13] = molecular target: T8, α2AR-α2AR (Homo sapiens, UniProt P08913); assay: CODA-RET Gαi1 activation, α2AR-α2AR homomer; type: cell-based; conditions: for Emax: Gαi1, Table 2
T8 sequence (P08913 1-465) 1: T2 sequence (P08913 1-465)
T8 sequence (P08913 1-465) 2: T2 sequence (P08913 1-465)

[14] = molecular target: T3, α2AR-D4.4R; assay: CODA-RET Gαi1 activation, α2AR-D4.4R heteromer; type: cell-based; conditions: for Emax: Gαi1, Table 2
[15] = molecular target: T9, α2AR (with D4.7R) (Homo sapiens, UniProt P08913); assay: BRET α2AR-RLuc and Gαo1-mVenus, cells co-transfected with unfused D4.7R; type: cell-based; conditions: in the presence of D4.7R
T9 sequence (P08913 1-465): T2 sequence (P08913 1-465)

[16] = molecular target: T10, α2AR (with D4.4R) (Homo sapiens, UniProt P08913); assay: BRET α2AR-RLuc and Gαo1-mVenus, cells co-transfected with unfused D4.4R; type: cell-based; conditions: in the presence of D4.4R
T10 sequence (P08913 1-465): T2 sequence (P08913 1-465)

[17] = test system: α2AR-D4.7R; assay: CODA-RET Gαo1 activation, α2AR-D4.7R heteromer; type: cell-based, human; conditions: Fig. 4E
[18] = molecular target: T11, human α2AR (Homo sapiens, UniProt P08913); assay: [3H]RX821002 saturation binding in HEK-293T cells transfected with human α2AR; conditions: read-out: KDA1, n=3
T11 sequence (P08913 1-465): T2 sequence (P08913 1-465)

[19] = test system: α2AR-D4.7R; type: binding, human; conditions: 12°C; control or in presence of A-412997 (30 nM)
[20] = molecular target: human α2A adrenoceptor fused to Renilla luciferase RLuc8 (α2AR-RLuc) (human) (UniProt P08913); assay: FRET or BRET
[21] = cells pretreated with antagonist

α2AR-D4.7R (Homo sapiens, UniProt P08913+P21917), sequence (P62873 2-340, one chain of several): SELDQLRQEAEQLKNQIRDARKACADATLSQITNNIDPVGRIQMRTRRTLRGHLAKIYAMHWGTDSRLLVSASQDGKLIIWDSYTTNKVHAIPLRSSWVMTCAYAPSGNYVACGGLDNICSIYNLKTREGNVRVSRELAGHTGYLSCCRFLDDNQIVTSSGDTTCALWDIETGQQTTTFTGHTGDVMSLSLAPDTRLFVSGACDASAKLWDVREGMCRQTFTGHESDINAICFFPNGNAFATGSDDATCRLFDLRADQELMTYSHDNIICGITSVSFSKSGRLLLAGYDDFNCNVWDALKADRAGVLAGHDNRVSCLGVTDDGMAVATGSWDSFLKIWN
α2AR-D4.7R (Homo sapiens, UniProt P08913+P21917), sequence (P63096 2-354, one chain of several, further chain): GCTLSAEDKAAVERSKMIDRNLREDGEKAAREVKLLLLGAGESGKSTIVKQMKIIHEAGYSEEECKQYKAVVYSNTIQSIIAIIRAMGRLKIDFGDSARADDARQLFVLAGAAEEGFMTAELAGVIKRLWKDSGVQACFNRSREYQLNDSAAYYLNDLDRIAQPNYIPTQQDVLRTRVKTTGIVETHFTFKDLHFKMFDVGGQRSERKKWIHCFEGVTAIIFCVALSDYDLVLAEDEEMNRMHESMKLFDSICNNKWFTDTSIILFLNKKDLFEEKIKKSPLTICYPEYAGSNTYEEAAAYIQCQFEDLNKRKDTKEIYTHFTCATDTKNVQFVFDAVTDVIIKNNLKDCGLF
α2AR-D4.7R (Homo sapiens, UniProt P08913+P21917), sequence (P59768 2-68, one chain of several, further chain): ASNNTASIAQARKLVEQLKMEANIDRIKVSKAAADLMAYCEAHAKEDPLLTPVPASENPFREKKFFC

Cc1cccc(NC(=O)CN2CCC(c3ccccn3)CC2)c1.Cl.Cl [A-412997, A-412997 dihydrochloride]
Emax [1]: 0 % of NE | Gαi1 activation ([2]; Gαi1-mVenus): did not promote | Gαo1 activation ([2]; Gαo1-mVenus): did promote significant Gαo1 activation | ERK1/2 phosphorylation [3]: more effective in α2AR-D4.4R cells than in α2AR-D4.7R cells | Gαo1 activation [4]: promoted Gαo1 activation | effect on DA-mediated Gi protein activation [5]: competitive antagonist of DA | Gαi1 activation ([6]; Gαi1-mVenus): did not promote | Gαo1 activation ([6]; Gαo1-mVenus): did promote significant Gαo1 activation | Kd ([7]; read-out: KDB1, vs [3H]YM-09151-2, HEK-293T co-expressing α2AR and D4.4R, n=3): 1.1 ± 0.1 nM | MAPK activation (ERK1/2 phosphorylation) [8]: significantly weaker than of dexmedetomidine | Kd [9]: 1400 nM | koff1 of [3H]RX821002 [10]: 0.25±0.07 ^* min^−1 | koff2 of [3H]RX821002 [10]: 0.036±0.007 ^* min^−1 | inhibition of forskolin-induced cAMP accumulation [11]: more effective than dexmedetomidine | effect on DA-mediated Gi protein activation [12]: competitive antagonist of DA

CC1c2ccccc2CN1CC1=NCCN1.O=C(O)/C=C\C(=O)O (stereo not shown) [BRL44408, BRL 44408 maleate]
antagonist effect on NE- and DA-induced Gαi1 activation [1, 21]: significantly decreased the potency of NE and DA | antagonist effect on NE- and DA-induced Gαi1 activation [13, 21]: significantly decreased the potency of NE and DA | antagonist effect on NE- and DA-induced Gαi1 activation [14, 21]: significantly decreased the potency of NE and DA

Clc1cccc(Cl)c1N=C1NCCN1 [Clonidine, Clonidine hydrochloride]
Emax [13]: 18±2 % of NE | Emax [14]: 0 % of NE | Emax ([14]; listed as clonidine): complete lack of efficacy

Cc1cccc([C@H](C)c2cnc[nH]2)c1C [Dexmedetomidine, Dexmedetomidine hydrochloride]
α2AR-mediated Gαo1 activation [15]: promotes a significant α2AR-mediated Gαo1 activation | α2AR-mediated Gαo1 activation [16]: promotes a significant α2AR-mediated Gαo1 activation | Gαo1 activation [17]: able to activate Gαo1 | Kd [7]: 2000 to 6000 nM | Emax [13]: 26±3 % of NE

N=C(N)NC(=O)Cc1c(Cl)cccc1Cl [Guanfacine, Guanfacine hydrochloride]
Emax [1]: 20±3 % of NE | Emax [13]: 14±2 % of NE | Emax [14]: 0 % of NE | Emax ([14]; listed as guanfacine): complete lack of efficacy

NC[C@H](O)c1ccc(O)c(O)c1 [NE, norepinephrine]
increase in NE potency on α2AR-D4.7R compared with α2AR-D4.4R ([1]; Gαi1 CODA-RET): five-fold | Emax [13]: 100±3 % of NE

Cc1cccc(C(=O)NCN2CCN(c3ccccc3C#N)CC2)c1 [PD168077]
Kd [9]: 80 ± 10 nM

CCCN[C@H]1CCc2nc(N)sc2C1 [Pramipexole, Pramipexole dihydrochloride]
Emax [1]: 48±5 % of NE | Emax [14]: 28±3 % of NE

COC1(C2=NCCN2)COc2ccccc2O1.Cl (stereo not shown) [RX821002, RX 821002 hydrochloride]
displacement of [3H]YM-09151-2 ([7]; any concentration up to 10 μM): did not displace

CCCN(CCC)CCc1cccc2c1CC(=O)N2 [Ropinirole]
Emax [13]: ineffective | EC50 [14]: 400 ± 200 nM

CCCN(CCc1cccs1)[C@H]1CCc2c(O)cccc2C1 [Rotigotine, Rotigotine hydrochloride]
Emax [1]: did not produce any response and 0 % of NE | Emax [13]: 0 % of NE | Emax ([13]; listed as rotigotine): ineffective; also recorded: did not produce any response | EC50 [14]: 7 ± 5 nM | Emax [14]: 13±2 % of NE | Emax ([14]; listed as rotigotine): small Gαi1 protein activation

COC1(C2=NCCN2)COc2ccccc2O1 (stereo not shown) [[^3H]RX821002]
Kd [18]: 0.62 ± 0.05 nM | RT1 (residence time) of [3H]RX821002 [10]: 7 min | RT2 (residence time) of [3H]RX821002 [10]: 50 min | koff1 of [3H]RX821002 [10]: 0.14 ± 0.03 min⁻¹ | koff2 of [3H]RX821002 [10]: 0.020 ± 0.004 min⁻¹ | RT (residence time) of [3H]RX821002 [19]: 17 min | koff of [3H]RX821002 [19]: 0.000967 ± 3.3e-05 s⁻¹

human dopamine D4.7 receptor fused to YFP (D4.7R-YFP)
BRET50 [20]: 60
